For 16 compounds, IC50 and Ratio IC50 results are on record in ChEMBL document CHEMBL1143900, “Tetrazole-biarylpyrazole derivatives as cannabinoid CB1 receptor antagonists” (Bioorg Med Chem Lett, 2008).

The structures appear in SMILES notation.

One test deals with Cannabinoid receptor 2 (Homo sapiens, UniProt P34972). As to the kind of experiment: Displacement of [3H]WIN-55212-2 from human cannabinoid CB2 receptor expressed in CHO cells. It counts as cell-based. For orientation: In a radioligand displacement assay an active substance lowers the binding of a labelled ligand.
Sequence of Cannabinoid receptor 2 (P34972 whole entry): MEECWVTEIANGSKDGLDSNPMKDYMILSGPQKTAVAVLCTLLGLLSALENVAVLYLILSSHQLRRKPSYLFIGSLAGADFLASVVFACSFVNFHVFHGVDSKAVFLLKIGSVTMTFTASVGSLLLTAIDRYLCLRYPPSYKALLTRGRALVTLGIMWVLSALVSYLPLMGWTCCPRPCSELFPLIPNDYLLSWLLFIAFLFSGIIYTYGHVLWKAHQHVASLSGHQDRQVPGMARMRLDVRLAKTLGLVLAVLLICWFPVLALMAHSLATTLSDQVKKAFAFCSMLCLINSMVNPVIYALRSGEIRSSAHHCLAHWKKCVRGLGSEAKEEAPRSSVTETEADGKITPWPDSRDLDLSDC
As for `Cc1c(-c2nnnn2C2CCCC2)nn(-c2ccc(Cl)cc2Cl)c1-c1ccc(Cl)cc1`, the IC50 is > 10 µM.
Consider `Cc1c(-c2nnnn2C2CCCCCC2)nn(-c2ccc(Cl)cc2Cl)c1-c1ccc(Br)cc1`, for which the IC50 was > 10 µM.
`CCc1c(-c2nnnn2C2CCCC2)nn(-c2ccc(Cl)cc2Cl)c1-c1ccc(Cl)cc1` yielded an IC50 of 0.84 µM.
For the compound `CCc1c(-c2nnnn2C2CCCC2)nn(-c2ccc(Cl)cc2Cl)c1-c1ccc(Br)cc1`, the IC50 was determined as 1.93 µM.
On to `Cc1c(-c2nnnn2C2CCCCCC2)nn(-c2ccc(Cl)cc2Cl)c1-c1ccc(Cl)cc1`, for which the IC50 was found to be 0.818 µM.
Same read-out and setting: the result for `Cc1c(-c2nnnn2C2CCCC2)nn(-c2ccc(Cl)cc2Cl)c1-c1ccc(Br)cc1` reads 4.24 µM.

Tested on in the next test: not listed separately
The test is described as follows: Selectivity ratio of IC50 for Sprague-Dawley rat CB1 receptor over IC50 for human CB2 receptor.
In the case of `Cc1c(-c2nnnn2C2CCCC2)nn(-c2ccc(Cl)cc2Cl)c1-c1ccc(Br)cc1`, the Ratio IC50 was determined as 366.

The target of another test is Cannabinoid receptor 1 (Rattus norvegicus, UniProt P20272). The test is described as follows: Inhibition of cannabinoid CB1 receptor in Sprague-Dawley rat brain.
Sequence of Cannabinoid receptor 1 (P20272 whole entry): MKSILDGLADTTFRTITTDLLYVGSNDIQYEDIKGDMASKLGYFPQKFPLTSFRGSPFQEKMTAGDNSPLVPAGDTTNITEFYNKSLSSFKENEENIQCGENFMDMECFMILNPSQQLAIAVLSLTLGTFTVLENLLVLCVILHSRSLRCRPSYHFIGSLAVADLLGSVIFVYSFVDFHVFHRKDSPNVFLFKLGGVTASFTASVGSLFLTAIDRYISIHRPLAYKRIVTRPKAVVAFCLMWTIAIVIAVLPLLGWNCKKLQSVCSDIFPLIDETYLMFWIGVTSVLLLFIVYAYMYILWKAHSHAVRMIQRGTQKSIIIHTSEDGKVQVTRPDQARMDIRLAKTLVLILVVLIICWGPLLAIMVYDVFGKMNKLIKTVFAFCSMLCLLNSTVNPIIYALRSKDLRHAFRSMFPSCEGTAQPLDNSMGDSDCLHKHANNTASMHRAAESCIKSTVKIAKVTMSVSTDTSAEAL
Consider `Cc1c(-c2nnnn2C)nn(-c2ccc(Cl)cc2Cl)c1-c1ccc(Cl)cc1`, for which the IC50 came out at 1.06 µM.
Regarding `CCCCCCCCn1nnc(-c2nn(-c3ccc(Cl)cc3Cl)c(-c3ccc(Cl)cc3)c2C)n1`, inhibition was half-maximal at 0.0506 µM (IC50).
In turn, `Cc1c(-c2nnnn2C(C)(C)C)nn(-c2ccc(Cl)cc2Cl)c1-c1ccc(Cl)cc1` registered an IC50 of 0.361 µM.
Take `Cc1c(-c2nnn(C)n2)nn(-c2ccc(Cl)cc2Cl)c1-c1ccc(Cl)cc1`: the IC50 was > 1 µM.
Take `Cc1c(-c2nnnn2C2CCCCCC2)nn(-c2ccc(Cl)cc2Cl)c1-c1ccc(Cl)cc1`: the IC50 was 0.0267 µM.
In turn, `Cc1c(-c2nnnn2-c2ccccc2)nn(-c2ccc(Cl)cc2Cl)c1-c1ccc(Cl)cc1` had an IC50 of 0.0338 µM.
As to `CCn1nnc(-c2nn(-c3ccc(Cl)cc3Cl)c(-c3ccc(Cl)cc3)c2C)n1`, the IC50 is > 1 µM.
As for `Cc1c(-c2nnnn2Cc2ccccc2)nn(-c2ccc(Cl)cc2Cl)c1-c1ccc(Cl)cc1`, the midpoint of inhibition, the IC50, lay at 0.0943 µM.
The same measure, in the same setting: for `CCCCCCCCn1nnnc1-c1nn(-c2ccc(Cl)cc2Cl)c(-c2ccc(Cl)cc2)c1C` the value was 0.0473 µM; for `CCCCn1nnnc1-c1nn(-c2ccc(Cl)cc2Cl)c(-c2ccc(Cl)cc2)c1C`, 0.0878 µM; for `CCCCn1nnc(-c2nn(-c3ccc(Cl)cc3Cl)c(-c3ccc(Cl)cc3)c2C)n1`, 0.0877 µM.

As a reminder, the IC50 is the midpoint of a concentration-inhibition curve. A high value points to lower potency.
